Each compound was assayed against T1, p70S6K (Homo sapiens, UniProt P23443, T412E) (assay: p70S6 Kinase Assay (Luciferase-Coupled Chemiluminescent Kinase assay, LCCA)). Settings: human p70S6 kinase domain residues 1-421, T412E; 5 μM ATP; read-out: p70S6K IC50.
T1 construct: human p70S6 kinase domain residues 1-421, containing a T412E mutation; made in house
Type: biochemical
Protocol: Kinase activity and compound inhibition are investigated using one or more of the three assay formats described below. The ATP concentrations for each assay are selected to be close to the Michaelis-Menten constant (KM) for each individual kinase. Dose-response experiments are performed at 10 different inhibitor concentrations in a 384-well plate format. […] Y=Min+(Max−Min)/(1+(X/IC50)^H) Equation (2) p70S6 Kinase Assay
Biochemical activity of p70S6 kinase was assessed using a Luciferase-Coupled Chemiluminescent Kinase assay (LCCA) format. Kinase activity was measured as the percent ATP remaining following the kinase reaction. Remaining ATP was detected by luciferase-luciferin-coupled chemiluminescence. […] The mixture is incubated at ambient temperature for 2 hours after which 20 μL luciferase-luciferin mix is added and the chemiluminescent signal read using a Wallac Victor^2 reader.

T1 sequence (P23443 1-421 T412E): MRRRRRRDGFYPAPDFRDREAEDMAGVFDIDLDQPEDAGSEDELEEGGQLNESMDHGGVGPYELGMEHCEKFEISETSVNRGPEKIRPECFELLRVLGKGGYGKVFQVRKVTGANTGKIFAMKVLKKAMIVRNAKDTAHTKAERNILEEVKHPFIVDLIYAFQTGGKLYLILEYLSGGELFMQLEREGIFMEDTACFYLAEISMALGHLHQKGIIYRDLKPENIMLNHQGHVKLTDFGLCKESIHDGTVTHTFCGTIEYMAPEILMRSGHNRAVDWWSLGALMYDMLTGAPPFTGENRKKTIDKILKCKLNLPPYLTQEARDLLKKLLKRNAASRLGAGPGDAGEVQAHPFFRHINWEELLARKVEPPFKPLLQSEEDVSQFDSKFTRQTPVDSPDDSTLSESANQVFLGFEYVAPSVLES

IC50 [nM] | SMILES
500 to 2000 | CSc1nc(N)nc(OCC(=O)Nc2cccc(C(F)(F)F)c2)c1CO [Example 56, 2-{[2-amino-5-(hydroxymethyl)-6-(methylthio)pyrimidin-4-yl]oxy}-N-[3-(trifluoromethyl)phenyl]acetamide]
500 to 2000 | CSc1nc(N)nc(NNC(=O)Nc2cccc(C(F)(F)F)c2)c1C#N [Example 64, 2-[2-amino-5-cyano-6-(methylthio)pyrimidin-4-yl]-N-[3-(trifluoromethyl)phenyl]hydrazinecarboxamide]
500 to 2000 | CN(C)c1nc(N)nc(SCC(=O)Nc2cccc(C(F)(F)F)c2)c1C#N [Example 66, 2-{[2-amino-5-cyano-6-(dimethylamino)pyrimidin-4-yl]thio}-N-[3-(trifluoromethyl)phenyl]acetamide]
50 to 500 | CSc1nc(N)nc(OCC(=O)Nc2cccc(C(F)(F)F)c2)c1C=O [Example 46, 2-{[2-amino-5-formyl-6-(methylthio)pyrimidin-4-yl]oxy}-N-[3-(trifluoromethyl)phenyl]acetamide]
> 2000 | CSc1nc(N)nc(N[C@@H](CCCCN(C)C)C(=O)Nc2cccc(C(F)(F)F)c2)c1C#N [Example 171, N~2~-[2-amino-5-cyano-6-(methylthio)pyrimidin-4-yl]-N~6~,N~6~-dimethyl-N-[3-(trifluoromethyl)phenyl]-L-lysinamide]
500 to 2000 | CSc1nc(N)nc(N[C@@H](C)C(=O)Nc2cccc(C(F)(F)F)c2)c1C#N [Example 60, N^2-[2-amino-5-cyano-6-(methylthio)pyrimidin-4-yl]-N-[3-(trifluoromethyl)phenyl]-L-alaninamide]
500 to 2000 | CSc1nc(N)nc(N[C@@H](CCC(=O)O)C(=O)Nc2cccc(C(F)(F)F)c2)c1C#N [Example 149, N~2~-[2-amino-5-cyano-6-(methylthio)pyrimidin-4-yl]-N-[3-(trifluoromethyl)phenyl]-Lalpha-glutamine]
> 2000 | CSc1nc(N)nc(N2CCC[C@@H]2C(=O)Nc2cccc(C(F)(F)F)c2)c1C#N [Example 85, (R)-1-[2-amino-5-cyano-6-(methylthio)pyrimidin-4-yl]-N-[3-(trifluoromethyl)phenyl]prolinamide]
500 to 2000 | CSc1nc(N)nc(OC2(C(=O)Nc3cccc(C(F)(F)F)c3)CC2)c1C#N [Example 69, 1-{[2-amino-5-cyano-6-(methylthio)pyrimidin-4-yl]oxy}-N-[3-(trifluoromethyl)phenyl]cyclopropanecarboxamide]
> 2000 | CCOC(=O)CN(NC(=O)Nc1cccc(C(F)(F)F)c1)c1nc(N)nc(SC)c1C#N [Example 95, ethyl[1-[2-amino-5-cyano-6-(methylthio)pyrimidin-4-yl]-2-({[3-(trifluoromethyl)phenyl]amino}carbonyl)hydrazino]acetate]
> 2000 | COc1nc(N)nc(N[C@@H](C)C(=O)Nc2cccc(C(F)(F)F)c2)c1C#N [Example 78, N^2-[2-amino-5-cyano-6-(methyloxy)pyrimidin-4-yl]-N-[3-(trifluoromethyl)phenyl]-L-alaninamide]

Further lines, the compound ahead of its results:

SMILES | IC50 [nM]
COc1nc(N)nc(N[C@@H](CN2CCOCC2)C(=O)Nc2cccc(C(F)(F)F)c2)c1C#N [Example 192, N~2~-[2-amino-5-cyano-6-(methyloxy)pyrimidin-4-yl]-3-morpholin-4-yl-N-[3-(trifluoromethyl)phenyl]-L-alaninamide] | > 2000
Nc1nc(SCC(=O)Nc2cccc(C(F)(F)F)c2)c(C=O)c(Sc2ccccc2)n1 [Example 51, 2-{[2-amino-5-formyl-6-(phenylthio)pyrimidin-4-yl]thio}-N-[3-(trifluoromethyl)phenyl]acetamide] | 50 to 500
C[C@H](Nc1nc(N)ncc1C#N)C(=O)Nc1cccc(C(F)(F)F)c1 [Example 90, N^2-(2-amino-5-cyanopyrimidin-4-yl)-N-[3-(trifluoromethyl)phenyl]-L-alaninamide] | > 2000
CSc1nc(N)nc(N[C@@H](CCC(=O)OCc2ccccc2)C(=O)Nc2cccc(C(F)(F)F)c2)c1C#N [Example 182, phenylmethyl N~2~-[2-amino-5-cyano-6-(methylthio)pyrimidin-4-yl]-N-[3-(trifluoromethyl)phenyl]-L-alpha-glutaminate] | > 2000
COCCN(CCC[C@H](Nc1nc(N)nc(SC)c1C#N)C(=O)Nc1cccc(C(F)(F)F)c1)CCOC [Example 184, N~2~-[2-amino-5-cyano-6-(methylthio)pyrimidin-4-yl]-N~5~,N~5~-bis[2-(methyloxy)ethyl]-N-[3-(trifluoromethyl)phenyl]-L-ornithinamide] | > 2000
CCOc1nc(N)nc(N[C@@H](CCC(=O)NN)C(=O)Nc2cccc(C(F)(F)F)c2)c1C#N [Example 177, ′2-(2-amino-5-cyano-6-ethoxy-pyrimidin-4-ylamino)-4-hydrazinocarbonyl-N-(3-trifluoromethyl-phenyl)-butyramide] | > 2000
COc1nc(N)nc(N[C@@H](CCCNC(=O)OC(C)(C)C)C(=O)Nc2cccc(C(F)(F)F)c2)c1C#N [Example 185, 1,1-dimethylethyl ((4S)-4-{[2-amino-5-cyano-6-(methyloxy)pyrimidin-4-yl]amino}-5-oxo-5-{[3-(trifluoromethyl)phenyl]amino}pentyl)carbamate] | > 2000
COc1nc(N)nc(N[C@@H](CN(C)C)C(=O)Nc2cccc(C(F)(F)F)c2)c1C#N [Example 178, N~2~-[2-amino-5-cyano-6-(methyloxy)pyrimidin-4-yl]-3-(dimethylamino)-N-[3-(trifluoromethyl)phenyl]-L-alaninamide] | > 2000
C[C@H](Nc1nc(N)nc([S+](C)[O-])c1C#N)C(=O)Nc1cccc(C(F)(F)F)c1 (stereo partly drawn) [Example 74, N^2-[2-amino-5-cyano-6-(methylsulfinyl)pyrimidin-4-yl]-N-[3-(trifluoromethyl)phenyl]-L-alaninamide] | > 2000
CCOc1nc(N)nc(N[C@@H](CCCCN(C)C)C(=O)Nc2cccc(C(F)(F)F)c2)c1C#N [Example 156, N~2~-[2-amino-5-cyano-6-(ethyloxy)pyrimidin-4-yl]-N~6~,N~6~-dimethyl-N-[3-(trifluoromethyl)phenyl]-L-lysinamide] | > 2000
COC(=O)c1cc(NC(=O)[C@H](C)Nc2nc(N)nc(OC)c2C#N)cc(C(F)(F)F)c1 [Example 189, methyl 3-({N-[2-amino-5-cyano-6-(methyloxy)pyrimidin-4-yl]-L-alanyl}amino)-5-(trifluoromethyl)benzoate] | > 2000
CCOc1nc(N)nc(N[C@@H](CCC(=O)O)C(=O)Nc2cccc(C(F)(F)F)c2)c1C#N [Example 173, N~2~-[2-amino-5-cyano-6-(ethyloxy)pyrimidin-4-yl]-N-[3-(trifluoromethyl)phenyl]-L-alpha-glutamine] | > 2000
COCCOC(=O)NCCC[C@H](Nc1nc(N)nc(SC)c1C#N)C(=O)Nc1cccc(C(F)(F)F)c1 [Example 126, 2-(methyloxy)ethyl ((4S)-4-{[2-amino-5-cyano-6-(methylthio)pyrimidin-4-yl]amino}-5-oxo-5-{[3-(trifluoromethyl)phenyl]amino}pentyl)carbamate] | > 2000
CCOc1nc(N)nc(N(C)[C@@H](CCCCNC(=O)OCc2ccccc2)C(=O)Nc2cccc(C(F)(F)F)c2)c1C#N [Example 162, N~2~-[2-amino-5-cyano-6-(ethyloxy)pyrimidin-4-yl]-N~2~-methyl-N~6~-{[(phenylmethyl)oxy]carbonyl}-N-[3-(trifluoromethyl)phenyl]-L-lysinamide] | > 2000
CNc1nc(N)nc(SCC(=O)Nc2cccc(C(F)(F)F)c2)c1C=O [Example 45, 2-{[2-amino-5-formyl-6-(methylamino)pyrimidin-4-yl]thio}-N-[3-(trifluoromethyl)phenyl]acetamide] | 50 to 500
CCOc1nc(N)nc(N[C@@H](CCC(=O)OCc2ccccc2)C(=O)Nc2cccc(C(F)(F)F)c2)c1C#N [Example 165, phenylmethyl N~2~-[2-amino-5-cyano-6-(ethyloxy)pyrimidin-4-yl]-N-[3-(trifluoromethyl)phenyl]-L-apha-glutaminate] | > 2000
CCOc1nc(N)nc(N[C@@H](C)C(=O)Nc2cc(C(=O)NCCCN3CCN(C)CC3)cc(C(F)(F)F)c2)c1C#N [Example 161] | > 2000
Cc1nc2oc(C(=O)Nc3cccc(C(F)(F)F)c3)c(N)c2c(C)c1N [Example 97, 3,5-diamino-4,6-dimethyl-N-[3-(trifluoromethyl)phenyl]furo[2,3-b]pyridine-2-carboxamide] | > 2000
COCCNCCC[C@H](Nc1nc(N)nc(SC)c1C#N)C(=O)Nc1cccc(C(F)(F)F)c1 [Example 144, N~2~-[2-amino-5-cyano-6-(methylthio)pyrimidin-4-yl]-N~5~-[2-(methyloxy)ethyl]-N-[3-(trifluoromethyl)phenyl]-L-omithinamide] | 500 to 2000
CCOc1nc(N)nc(N[C@@H](CO)C(=O)Nc2cccc(C(F)(F)F)c2)c1C#N [Example 150, N~2~-[2-amino-5-cyano-6-(ethyloxy)pyrimidin-4-yl]-N-[3-(trifluoromethyl)phenyl]-L-serinamide] | 500 to 2000
CSc1nc(N)nc(N[C@@H](C)C(=O)Nc2cc(C(=O)O)cc(C(F)(F)F)c2)c1C#N [Example 145] | 500 to 2000

Same assay, conditions: p70S6K IC50, human p70S6 kinase domain residues 1-421, T412E; 5 μM ATP

SMILES | IC50 [nM]
CSc1nc(N)nc(O[C@@H](C)C(=O)Nc2cccc(C(F)(F)F)c2)c1C#N [Example 42, (2S)-2-{[2-amino-5-cyano-6-(methylthio)pyrimidin-4-yl]oxy}-N-[3-(trifluoromethyl)phenyl]propanamide] | 50 to 500
